In article PMC10826043 (BMC Complementary Medicine and Therapies, 2024):
Read-outs that look alike come from different tables or passages of the source. One block for each compound: values may come before it.

What was measured:
α-amylase [1] = settings: validation set, cited from earlier work
[2] = target: T1, α-amylase from porcine pancreas (Sus scrofa, UniProt P00690); test: In vitro pancreatic α-amylase inhibitory assay (starch/DNS, 540 nm); assay type: biochemical; settings: 1% starch, pH 6.9, 25 °C, read-out: IC50 (α-amylase inhibition)
T1 construct: α-amylase from porcine pancreas (A3176); purchased Sigma-Aldrich (Germany) A3176; host or cells: porcine pancreas (tissue-derived)
T1 sequence (P00690 16-511): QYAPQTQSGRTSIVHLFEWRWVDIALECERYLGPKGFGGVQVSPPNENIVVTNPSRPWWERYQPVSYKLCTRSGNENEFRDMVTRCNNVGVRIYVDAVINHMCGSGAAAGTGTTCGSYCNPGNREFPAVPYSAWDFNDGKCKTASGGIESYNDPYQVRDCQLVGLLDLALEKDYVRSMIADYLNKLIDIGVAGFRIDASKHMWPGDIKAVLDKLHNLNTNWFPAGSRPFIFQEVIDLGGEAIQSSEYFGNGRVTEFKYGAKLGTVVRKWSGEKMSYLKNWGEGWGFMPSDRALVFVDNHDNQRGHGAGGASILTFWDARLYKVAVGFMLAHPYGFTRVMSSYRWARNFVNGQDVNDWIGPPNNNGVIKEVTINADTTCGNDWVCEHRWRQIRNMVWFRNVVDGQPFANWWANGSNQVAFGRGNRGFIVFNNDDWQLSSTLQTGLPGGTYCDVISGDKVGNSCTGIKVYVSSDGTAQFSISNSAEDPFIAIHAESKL
Protocol: Analytical purity grade solvents were used throughout the study.
With reference to the established technique, the assay was carried out quantitatively with minor adjustments. Initially, 500µL test solution was preincubated with 500µL α-amylase solution (0.55 unit/mL) at 25°C for 10 min. The α-amylase was prepared in a buffer solution (0.02M sodium phosphate pH 6.9 with 0.006M NaCl). Afterwards, 500µL of 1% w/v starch in buffer solution was mixed in and left to incubate for 10 min at 25°C. To bring the reaction to a halt, 1mL dinitrosalicylic acid (DNS) was introduced and the mixture was placed in a boiling water bath for 3.5 min. After cooling to room temperature, the mixture was then diluted using 10mL distilled water and absorbance was measured using a Laxco spectrophotometer (α1502, Laxco Inc., USA) at λ 540nm. Blanks used throughout the experiment were made by adding pure buffer instead of α-amylase solution. […] To calculate the pancreatic α-amylase inhibitory activity, the following equation was used: %Inhibtion=100×1-Abs540nmExtract-Abs540nmPositivecontrol/Abs540nmNegativecontrol-Abs540nmPositivecontrol

α-amylase [3] = target: T2, α-amylase (Sus scrofa, UniProt P00690); test: Combination analysis of α-amylase inhibition (CompuSyn: median-effect, isobologram, CI, DRI); assay type: biochemical, porcine; settings: for Dose (mM) Kaempferol: kaempferol alone
T2 construct: α-amylase from porcine pancreas (A3176); purchased Sigma-Aldrich (Germany) A3176; host or cells: porcine pancreas (tissue-derived)
T2 sequence (P00690 16-511): T1 sequence (P00690 16-511)
From the text: These include: median effect, isobolographic, combination index, and lastly, dose reduction index analyses.
Data input included each inhibitors’ independent activity and the summation of both inhibitors’ activity when used in conjunction of each other. […] 2.6.
This method of analysis relies on its namesake equation, the median-effect equation which stems from the general mass-action law principle. Each inhibitor’s sigmoidal dose–effect plot was individually generated in addition to their respective combination. Thereafter, the plot was transfigured linearly into median-effect plots. The median-effect equation is described as: fa/fu=D/Dm^m
D represents the dose of the inhibitor, Dm is the inhibitor’s dose causing a decrease of 50% in the enzyme’s activity, fa is the fraction affected by dose D , fu is the unaffected fraction ( fu = 1 – fa ), and m the curve’s sigmoidicity coefficient. Through logarithmic transformation, the equation becomes: Logfa/fu=mlogD-mlog(Dm)
This, in turn, results in the median-effect plot. A plot where y=log(fa/fu) against x=log(D) with m being the slope and log(Dm) , the x-intercept. Dm and m are obtained from the median-effect plot. To determine the data’s conformity to the general mass-action principle, the linear correlation coefficient (r) of the plot is assessed.
Using each inhibitor’s individual effect, this method of analysis is employed to assess the combined effect of two inhibitors. A graph, wherein the x- and y- axes represent the doses of inhibitors A and B, respectively, is plotted. The doses, a and b denote the dose of inhibitor A and B, respectively, resulting in the same efficacy when used individually. (e.g.: At x % inhibition, a = CA,x and b = CB,x ). To assess the combined effects of inhibitors A and B, an additive line must first be established. This is accomplished by connecting two points of the same efficacy (e.g.: connecting a with b). Based on the respective position of the combination data points relative to the additive line, the nature of the interaction can be determined; synergism, addition, or antagonism are indicated by data points lying below, on, or above the additive line, respectively.
The combination index (CI) quantitatively evaluates the type of interaction between two inhibitors at a series of inhibition levels. CI is calculated by means of the following equation [38]: CI=CA,x/ICx,A+CB,x/ICx,B Where ICx,A and ICx,B are the doses of inhibitors A and B, respectively, required to produce x % inhibition when each inhibitor is used individually. Whereas CA,x and CB,x are the doses of inhibitors A and B, respectively, required to produce x % inhibition when a binary mixture is used. Based on the resulting CI, the nature of the inhibitors’ interaction can be concluded. A CI lower than, equal to, or greater than 1 is indicative of synergism, addition, or antagonism, respectively. Alternatively, the interaction present between the two inhibitors can be deduced via the combination index ( fa -CI) plot.
The dose reduction index (DRI) was calculated for synergistic binary combinations to measure the fold decrease in the dose of each inhibitor at a given effect level, relative to the dose of each inhibitor when used solitarily resulting in the same effect. DRI can be calculated as follows: DRI=IC50[solitaryinhibitor]/IC50[inhibitorincombination]
DRI values > 1 are favored, reflecting a decrease in dose while maintaining or enhancing the inhibitor’s efficacy.

SMILES: O=c1cc(-c2ccc(O)c(O)c2)oc2cccc(O)c12 [5,3',4'-Trihydroxyflavone]
IC50 (α-amylase [1]; supplement ref [8]): 0.148 ± 0.005 mM

SMILES: O=c1c(O)c(-c2ccc(O)cc2)oc2cc(O)ccc12 [3,7,4'-Trihydroxyflavone]
IC50 (α-amylase [1]; supplement ref [8]): 0.059 ± 0.004 mM

SMILES: Cc1c(O)cc2c(c1O)C(=O)C(Cc1ccc(O)cc1)CO2 (centres unmarked) [5,7-dihydroxy-6-methyl-3-(4′-hydroxybenzyl) chroman-4-one]
IC50 (α-amylase [1]; supplement ref [11]): 5.99 ± 0.06 mM

SMILES: OC[C@H]1O[C@@H](Oc2cc3c(O)cc(O)cc3[o+]c2-c2ccc(O)c(O)c2)[C@H](O)[C@@H](O)[C@@H]1O [Cyanidin-3-glucoside]
IC50 (α-amylase [1]; supplement ref [5]): 0.024 ± 0.003 mM

SMILES: COc1cc(C(=O)O)ccc1O [Vanillic acid]
IC50 (α-amylase [1]; supplement ref [10]): 2.05 ± 0.01 mM

SMILES: COc1cc(/C=C/C(=O)O)cc(OC)c1O [Sinapic acid]
IC50 (α-amylase [1]; supplement ref [13]): 37 mM

SMILES: COc1cc(C=O)ccc1O [Vanillin]
IC50 (α-amylase [1]; supplement ref [13]): 71 mM

SMILES: COc1cc(C(=O)O)cc(OC)c1O [Syringic acid]
IC50 (α-amylase [1]; supplement ref [10]): 1.98 ± 0.01 mM

SMILES: O=C(O)c1ccccc1O [Salicylic acid]
IC50 (α-amylase [1]; supplement ref [13]): 13 mM

SMILES: OC[C@H]1O[C@@H](Oc2cc3c(O[C@@H]4O[C@H](CO)[C@@H](O)[C@H](O)[C@H]4O)cc(O)cc3[o+]c2-c2ccc(O)c(O)c2)[C@H](O)[C@@H](O)[C@@H]1O [Cyanidin-3,5-glucoside]
IC50 (α-amylase [1]; supplement ref [5]): 0.04 ± 0.007 mM

SMILES: COc1cc(OC)c2c(c1C)O[C@H](c1ccc(O)cc1)CC2 [(2S)-4′-hydroxy-5,7-dimethoxy-8-methylflavan]
IC50 (α-amylase [1]; supplement ref [11]): 6.03 ± 0.27 mM

SMILES: O=C(O)/C=C/c1ccc(O)c(O)c1 [Caffeic acid]
IC50 (α-amylase [1]; supplement ref [13]): 19.4 mM

SMILES: O=C(O)C1OC(Oc2cc(O)c3c(=O)cc(-c4ccc(O)cc4)oc3c2)C(O)C(O)C1O [Apigenin-7-O-β-D-glucopyranuronide]
IC50 (α-amylase [1]; supplement ref [3]): 0.0104 ± 0.00251 mM

IC50 [2]: 2.37 mM
SMILES: OCC1=C[C@@H](O)[C@@H]2C=CO[C@@H](O[C@@H]3O[C@H](CO)[C@@H](O)[C@H](O)[C@H]3O)[C@H]12 [Aucubin]

SMILES: O=C(/C=C/c1ccc(O)c(O)c1)O[C@@H]1C[C@](O)(C(=O)O)C[C@@H](O)[C@H]1O [Chlorogenic Acid, chlorogenic acid]
IC50 [2]: 7.39 ± 0.22 mM | IC50 (α-amylase [1]; supplement ref [9]): 1.05 ± 0.018 mM

SMILES: COc1cc(-c2oc3cc(O)cc(O)c3c(=O)c2O)ccc1O [Isorhamnetin]
IC50 (α-amylase [1]; supplement ref [12]): 24.9 ± 0.427 mM

SMILES: O=c1c(O)c(-c2ccc(O)cc2)oc2cc(O)cc(O)c12 [Kaempferol]
IC50 [2]: 4.84 ± 0.14 mM | IC50 (α-amylase [1]; supplement ref [3]): 0.0165 ± 0.00184 mM | IC50 (α-amylase [3]): 4.84 mM | m (slope of median-effect plot) (α-amylase [3]): 1.18 | r (correlation coefficient of median-effect plot) (α-amylase [3]): 1.00 | DRI Kaempferol (α-amylase [3]; fold dose reduction in combination with acarbose at 26% inhibition): 2.66 | DRI Kaempferol (α-amylase [3]; fold dose reduction in combination with acarbose at 86% inhibition): 2.27 | DRI Kaempferol (α-amylase [3]; fold dose reduction in combination with acarbose at 91% inhibition): 1.11 | Dose (mM) Kaempferol (α-amylase [3]; dose needed for 26% inhibition): 1.99 mM | Dose (mM) Kaempferol (α-amylase [3]; dose needed for 86% inhibition): 22.6 mM | Dose (mM) Kaempferol (α-amylase [3]; dose needed for 91% inhibition): 34.5 mM

SMILES: O=C(O)c1cc(O)c(O)c(O)c1 [Gallic acid]
IC50 (α-amylase [1]; supplement ref [7]): 0.0278 ± 0.00206 mM

SMILES: O=c1cc(-c2ccc(O)c(O)c2)oc2cc(O)cc(O)c12 [Luteolin]
IC50 [2]: 6.32 ± 0.03 mM | IC50 (α-amylase [1]; supplement ref [3]): 0.0146 ± 0.00074 mM

IC50 [2]: 7 ± 0.09 mM
SMILES: O=C(/C=C/c1ccc(O)c(O)c1)O[C@H](Cc1ccc(O)c(O)c1)C(=O)O [Rosmarinic Acid, rosmarinic acid]
